Consider 19 compounds from US9386767B2, “Derivatives of dillapiol and related monolignans and use thereof” (UNIVERSITY OF OTTAWA, priority 2011, dated 2016).

Each structure is given as a SMILES string. “And” between values parts separate entries of the source, which are not always exact repeats. Equal values may be shown once. Read-outs that look alike come from different tables or passages of the source.

In data set [1] the target is T1, human cytochrome CYP3A4 (Homo sapiens, UniProt P08684). In words: CYP3A4 inhibition assay of dillapiol derivatives (earlier benzyloxyresorufin assay). The settings on record: for Rel. Activity Dillapiol = 1.0: CYP3A4 inhibition relative to dillapiol. The data set is classed as biochemical. As to the method:
A suite of dillapiol derivatives were synthesized and assayed for their capacity to inhibit human cytochrome CYP3A4. For each molecule, experimental IC50 values for CYP3A4 inhibition were determined. These IC50 values together with the log of the octanol-water partition coefficient (logP) and molecular refractivity (MR) are shown in Table 1, and were used as parameters to model a quantitative structure-activity relationship (QSAR). The resulting equations were used to guide the design of further derivatives with enhanced CYP3A4 inhibition.
(§1) In the second set of experiments, new CYP3A4 enzyme inhibition assays were conducted with a designed set of analogs and newer method described by Foster et al. (J. Agric. Food Chem, 2011, 59(9):5159-5163). This assay using the substrate dibenzylfluorescein (DBF) is considered more representative of CYP3A4 activity as compared to the benzyloxyresorufin assay previously used (Budzinski et al., 2000, Phytomedicine, 7(4):273-282).

A further data set deals with T2, CYP3A4 (BDGentest) (Homo sapiens, UniProt P08684).
T2 construct: purchased BDGentest
T2 sequence (P08684 whole entry): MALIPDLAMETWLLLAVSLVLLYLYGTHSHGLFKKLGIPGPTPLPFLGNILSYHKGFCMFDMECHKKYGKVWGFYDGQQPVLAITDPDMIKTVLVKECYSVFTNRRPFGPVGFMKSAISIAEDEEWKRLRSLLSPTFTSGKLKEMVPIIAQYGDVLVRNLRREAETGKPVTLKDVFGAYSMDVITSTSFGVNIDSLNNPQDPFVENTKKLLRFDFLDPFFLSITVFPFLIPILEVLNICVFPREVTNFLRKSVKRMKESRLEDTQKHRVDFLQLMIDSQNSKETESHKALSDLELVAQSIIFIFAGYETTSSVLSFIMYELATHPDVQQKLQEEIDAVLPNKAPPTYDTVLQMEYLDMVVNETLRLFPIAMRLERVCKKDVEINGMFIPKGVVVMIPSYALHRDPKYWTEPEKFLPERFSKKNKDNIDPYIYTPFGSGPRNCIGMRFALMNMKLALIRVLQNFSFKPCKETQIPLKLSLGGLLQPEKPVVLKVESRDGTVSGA
Kind of data set: New CYP3A4 bioassay with dibenzylfluorescein (DBF) substrate (Foster et al. 2011). It counts as biochemical. Particulars: for IC50: human microsomes; for % Activity relative to dillapiol = 1: new CYP3A4 bioassay, inhibition relative to dillapiol. As to the method:
as §1
(§2) Aliquots (10 μL) of stock solutions of the undiluted products were screened for their ability to inhibit CYP3A4 (BDGentest) metabolism of the non-fluorescent dibenzylfluorescein (DBF) substrates to the fluorescent metabolite using an in vitro fluorometric microtiter plate assay (CytoFluor Series 4000 multi-well plate reader). Briefly, assays were performed with 10 μL of product in clear-bottom, opaque-welled microtiter plates (96 well, Corning Costar). Control and control blank wells contained 5% ethanol, and test and test blank wells contained the product. All wells tested contained distilled water, β-nicotinamide adenine dinucleotide phosphate, reduced form (NADPH, Sigma Chemicals), and the enzyme substrate DBF (final concentration of 1 μM/well), for a total reaction volume of 200 μL. Control and test wells also contained live isozyme, within human microsomes, in phosphate buffer solution (PBS; 0.5 M, pH 7.4), and control blank and test blank wells contained denatured isoenzyme in PBS. Fluorescence was measured at 485 nm excitation and 530 nm emission, with a gain of 50.

The next data set deals with T3, CYP3A4 (Homo sapiens, UniProt P08684).
T3 construct: purchased BDGentest
T3 sequence (P08684 whole entry): as above
The description is as above. The data set is classed as biochemical. The settings on record: human, CYP3A4 (BDGentest) isozyme within human microsomes, pH 7.4, probe dibenzylfluorescein (DBF), 1 μM final, DBF substrate 1 μM, human microsomes. As to the method:
as §1, §2

Another data set concerns mosquito larvae. Particulars: co-administration of dillapiol with alpha-terthienyl; increased toxicity in mosquito larvae; cited from earlier work.
Data set [2] has as its target T1, human cytochrome CYP3A4. The settings on record: Budzinski et al., 2000; cited from earlier work.
The next data set deals with parasitemia. Particulars: co-administration of dillapiol with genudin, mice; cited from earlier work.
The mark [3] stands for this setting: Table 1, CYP3A4 inhibition, read-out: IC50.
Where [4] appears, read: DBF substrate 1 μM, read-out: IC50 (converted).

T1 sequence (P08684 whole entry): as above

Usually IC50 stands for the concentration that gives 50% inhibition. Consider `COc1c(CCCOC(=O)c2ccccc2)cc2c(c1OC)OCO2` [Compound 12], for which, at human cytochrome CYP3A4 [1] (Table 1), the “CYP3A4 inhibition compared with dillapiol (in words)” value was “at least four times lower than dillapiol” and the “Rel. Activity Dillapiol = 1.0” value turned out to be 29. In addition, at human cytochrome CYP3A4 [1] (setting [3]), the IC50 was determined as 14 µM. At CYP3A4 (BDGentest), the “CYP3A4 inhibition (in words)” value is given as “increased inhibition of CYP3A4 compared to dillapiol” and the “% Activity relative to dillapiol = 1” value was 4.4. Moreover, the half-inhibitory concentration (IC50) at CYP3A4 (BDGentest) (setting [4]) was 2.1 µM and 2.11 µM.

Turning to `C=CCc1cc2c(c(CC=C)c1O)OCO2` [Compound 11], on human cytochrome CYP3A4 [1] (Table 1), the “Rel. Activity Dillapiol = 1.0” value is 1.9. Further, the half-inhibitory concentration (IC50) at human cytochrome CYP3A4 [1] (setting [3]) was determined as 210 µM.

On to `C=CCc1cc2c(c(CO)c1OC)OCO2` [Compound 4], for which the “Rel. Activity Dillapiol = 1.0” value on human cytochrome CYP3A4 [1] (Table 1) is given as 0.45. Moreover, at human cytochrome CYP3A4 [1] (setting [3]), the IC50 turned out to be 900 µM.

Regarding `C=CCc1cc2c(c(COCC(=O)OCC)c1OC)OCO2` [Compound 13], on human cytochrome CYP3A4 [1] (Table 1), the “CYP3A4 inhibition compared with dillapiol (in words)” value is on record as “at least four times lower than dillapiol” and the “Rel. Activity Dillapiol = 1.0” value was 4.2. For the same compound, the IC50 at human cytochrome CYP3A4 [1] (setting [3]) was 98 µM.

With `C=CCc1cc2c(c(Sc3ccccc3)c1OC)OCO2` [Compound 16], the “Rel. Activity Dillapiol = 1.0” value at human cytochrome CYP3A4 [1] (Table 1) is given as 0.84. Also, the half-maximal inhibitory concentration (IC50) at human cytochrome CYP3A4 [1] (setting [3]) came out at 480 µM.

`C=CCc1cc2c(c(Br)c1O)OCO2` [Compound 17]: the “Rel. Activity Dillapiol = 1.0” value at human cytochrome CYP3A4 [1] (Table 1) was determined as 0.68. Further, the half-maximal inhibitory concentration (IC50) at human cytochrome CYP3A4 [1] (setting [3]) came out at 600 µM.

Consider `C=CCc1cc2c(c([S+]([O-])c3ccccc3)c1OC)OCO2` (centres unmarked) [Compound 26], for which, at human cytochrome CYP3A4 [1] (Table 1), the “Rel. Activity Dillapiol = 1.0” value was 2.7. The IC50 at human cytochrome CYP3A4 [1] (setting [3]) was 150 µM.

For the compound `COc1c(/C=C/CC(O)(c2ccccc2)c2ccccc2)cc2c(c1OC)OCO2` [Compound 1], at human cytochrome CYP3A4 [1] (Table 1), the “CYP3A4 inhibition compared with dillapiol (in words)” value is “at least four times lower than dillapiol”; the “Rel. Activity Dillapiol = 1.0” value was 100 and 114. Besides, the IC50 at human cytochrome CYP3A4 [1] (setting [3]) stood at 3.6 µM. For the same compound, on CYP3A4 (BDGentest), the “CYP3A4 inhibition (in words)” value is on record as “increased inhibition of CYP3A4 compared to dillapiol” and the “% Activity relative to dillapiol = 1” value is listed as 5.8. Moreover, the IC50 at CYP3A4 (BDGentest) (setting [4]) was 1.58 µM.

`COc1c(CCCO)cc2c(c1OC)OCO2`: the half-maximal inhibitory concentration (IC50) at CYP3A4 is 16 µM; at CYP3A4 (BDGentest) (setting [4]) it was 16.6 µM. Moreover, the “% Activity relative to dillapiol = 1” value at CYP3A4 (BDGentest) was determined as 0.57.

Regarding `C=CCc1cc2c(c(S(=O)(=O)c3ccc(OC)cc3)c1O)OCO2` [Compound 23], at human cytochrome CYP3A4 [1] (Table 1), the “Rel. Activity Dillapiol = 1.0” value was 1.8. Besides, the IC50 at human cytochrome CYP3A4 [1] (setting [3]) amounted to 230 µM.

As for `C=CCc1cc2c(c(OCCCCCCCC)c1OC)OCO2` [Compound 3], the “Rel. Activity Dillapiol = 1.0” value at human cytochrome CYP3A4 [1] (Table 1) was 1.3. The IC50 at human cytochrome CYP3A4 [1] (setting [3]) was determined as 320 µM.

Consider `C=CCc1cc2c(c(O)c1OC)OCO2` [Compound 10], for which the IC50 at human cytochrome CYP3A4 [1] was determined as 1600 µM. Besides, at human cytochrome CYP3A4 [1] (Table 1), the “Rel. Activity Dillapiol = 1.0” value came out at 0.26.

On to `C=CCc1cc2c(cc1O)OCO2` [Compound 14], for which the “Rel. Activity Dillapiol = 1.0” value at human cytochrome CYP3A4 [1] (Table 1) is 0.75. Further, on human cytochrome CYP3A4 [1] (setting [3]), the IC50 came to 550 µM.

Regarding `C=CCc1cc2c(c(OC)c1OC)OCO2` [dillapiol, 4,5 dimethoxy-6-(2-propenyl)-1,3-benzodioxole], in the data set on mosquito larvae, the synergism factor is 1.9. Moreover, the IC50 against human cytochrome CYP3A4 [1] is 410 µM; at CYP3A4 (BDGentest) (IC50, DBF substrate 1 μM) it was 9.45 µM. In addition, on human cytochrome CYP3A4 [1] (Table 1), the “Rel. Activity Dillapiol = 1.0” value is reported as 1.0. Besides, at human cytochrome CYP3A4 [2], the “inhibition of human cytochrome P450 3A4 (in words)” value is given as “inhibits the human cytochrome P450 3A4 (CYP3A4) enzyme”. Besides, the “increase of parasitemia clearance” value with parasitemia is on record as 29%. The “% Activity relative to dillapiol = 1” value on CYP3A4 (BDGentest) was 1.

On to `C=CCc1cc2c(c(C(O)CCCCCCCC)c1OC)OCO2` (single isomer, unassigned) [Compound 7], for which the “Rel. Activity Dillapiol = 1.0” value on human cytochrome CYP3A4 [1] (Table 1) came out at 2.2. At human cytochrome CYP3A4 [1] (setting [3]), the IC50 came out at 190 µM.

In the case of `C=CCc1cc2c(c(CC=C)c1OC)OCO2` [Compound 9], 810 µM corresponded to half-maximal inhibition against human cytochrome CYP3A4 [1] (IC50). The “Rel. Activity Dillapiol = 1.0” value on human cytochrome CYP3A4 [1] (Table 1) turned out to be 2.0.

Turning to `C=CCc1cc2c(c(C=O)c1OC)OCO2` [Compound 8], the “Rel. Activity Dillapiol = 1.0” value at human cytochrome CYP3A4 [1] (Table 1) turned out to be 0.66. In addition, at human cytochrome CYP3A4 [1] (setting [3]), the IC50 was 620 µM.

For `C=CCc1cc2c(c([S+]([O-])Cc3ccccc3)c1OC)OCO2` (centres unmarked) [Compound 27], on human cytochrome CYP3A4 [1] (Table 1), the “CYP3A4 inhibition compared with dillapiol (in words)” value is “at least four times lower than dillapiol” and the “Rel. Activity Dillapiol = 1.0” value amounted to 6.4. Further, the IC50 on human cytochrome CYP3A4 [1] (setting [3]) turned out to be 64 µM.

As to `C=CCc1cc2c(c(SCc3ccccc3)c1O)OCO2` [Compound 24], at human cytochrome CYP3A4 [1] (Table 1), the “Rel. Activity Dillapiol = 1.0” value came out at 1.6.
